Experimental data reported in patent US20060110401A1, “Mixture of peptides from c and ns3 proteins of the hepatitis c virus and applications thereof” (priority 2002, published 2006).
Like-named read-outs stand apart in the source and are kept apart here. Residues, ends and D or L forms follow the SMILES beside them.

Columns and labels:
DRB4 = test: DRB4
Source text: (§1) Table printed on a drawing sheet, Figure 2
Where the first naming reader finds the target: head: DRB4

HLA-DR1 (DRB1*0101) = target: T1, HLA-DR1 (DRB1*0101) (Homo sapiens, UniProt P01903+P01911, A100R/D57E/F55L/F60I/F76Y/I96L/L162R/M171V/P40L/Q125E/R42F/V115G/Y59C); test: biochemical; format: binding
T1 construct: endogenous in cells; host or cells: homozygous EBV-transformed human B lymphocyte lines; immunopurified with antibody L243

DRB3 = test: DRB3
DRB5 [1] = test: DRB5
DR11 [2] = test: DR11
Source text: as §1
(§2) Where the first naming reader finds the target: head: DR11

DR7 [3] = test: DR7
DR3 = test: DR3
Source text: as §1
Where the first naming reader finds the target: head: DR3

DR4 [4] = test: DR4
DR15 [5] = test: DR15
[6] = test system: splenocytes from mice transgenic for the human HLA-DR1 molecules; test: Proliferation assay with splenocytes of immunized HLA-DR1 transgenic mice; format: in vivo; details: 25 μg of single peptide in montanide, subcutaneous, two injections; restimulation 5 μg/ml; FIG. 4A
Description: The ability of the peptides having good affinity for the HLA II molecules, as defined above, to induce an immune response was evaluated by means of an in vitro proliferation assay in mice transgenic for HLA-DR1 molecules (Wilkinson et al., Infect. Immunity, 1999, 67, 1501-; Rosloniec et al., J. Exp. Med., 1997, 185, 1113-), pre-immunized with these peptides.
15 days later, a second injection was given under the same conditions. Ten days after the second injection, the animals were sacrificed and their spleen was removed. The splenocytes were cultured in HL-1 medium (Biowhittaker) supplemented with 1% of mouse serum, in the presence of 5 μg/ml of each of the peptides used for the injection, or in the absence of peptide. After 4 days of culture, 1 μCi of tritiated thymidine (Amersham, Life Technologies) was added for 16 h. The tritiated thymidine incorporation was then measured using a beta-counter (Microbeta 1450, Perkin Elmer). The results are expressed as a proliferation index (number of CPM in the presence of peptide/number of CPM in the absence of peptide).

DR13 = test: DR13
Source text: as §1
Where the first naming reader finds the target: head: DR13

DR15 [7] = test: DR15; remark: listed apart in the source
Source text: (§3) Table printed on a drawing sheet, Figure 3
(§4) The patent's description of the figure: FIG. 3 illustrates the binding activity, with respect to the HLA II molecules that are predominant in the Caucasian population, of a second series of peptides of the C and NS3 proteins, derived from the first series. The values correspond to the IC50 values, expressed in nM.
(§5) First copying reader's note: The sheet prints no unit; blank spacer lines between peptide groups are left out, and the Nb head is printed slightly left of its column.; the cell N1056-1070 / DR15 is printed empty.; the cell N1056-1070 / DR15 is printed empty.
Where the first naming reader finds the target: head: DR15

DRB5 [8] = test: DRB5; remark: listed apart in the source
Source text: as §3, §4, §5
Where the first naming reader finds the target: head: DRB5

DR7 [9] = test: DR7; remark: listed apart in the source
Source text: as §3, §4, §5
Where the first naming reader finds the target: head: DR7

DP401 = test: DP401
Source text: as §3, §4, §5
Where the first naming reader finds the target: head: DP401

DR4 [10] = test: DR4; remark: listed apart in the source
Source text: as §3, §4, §5
Where the first naming reader finds the target: head: DR4

DR1 = test: DR1
Source text: as §3, §4, §5
Where the first naming reader finds the target: head: DR1

DR11 [11] = test: DR11; remark: listed apart in the source
Source text: as §3, §4, §5, §2

CC(C)C[C@H](NC(=O)[C@H](C)NC(=O)[C@H](CCCNC(=N)N)NC(=O)[C@H](C)N)C(=O)N[C@@H](C)C(=O)N[C@@H](Cc1c[nH]cn1)C(=O)NCC(=O)N[C@H](C(=O)N[C@@H](CCCNC(=N)N)C(=O)N[C@H](C(=O)N[C@@H](CC(C)C)C(=O)N[C@@H](CCC(=O)O)C(=O)N[C@@H](CC(=O)O)C(=O)NCC(=O)N[C@H](C(=O)N[C@@H](CC(N)=O)C(=O)N[C@@H](Cc1ccc(O)cc1)C(=O)N[C@@H](C)C(=O)N[C@H](C(=O)NCC(=O)N[C@@H](CC(N)=O)C(=O)N[C@@H](CC(C)C)C(=O)N1CCC[C@H]1C(=O)NCC(=O)N[C@@H](C)C(=O)N[C@@H](CO)C(=O)O)[C@@H](C)O)C(C)C)C(C)C)C(C)C [6C 148-173] (H-ARALAHGVRVLEDGVNYATGNLPGAS-OH; N-terminus and C-terminus assumed)
IC50 (DRB4): 27.5 µM | IC50 (HLA-DR1 (DRB1*0101); DRB1*0101, competition with biotinylated tracer HA 306-318, read-out: IC50, binding to HLA-DR1): 10 µM | affinity for HLA-DR1 (in words) (HLA-DR1 (DRB1*0101); legend of FIG. 4): low affinity | IC50 (DRB3): 4.83 µM | IC50 (DRB5 [1]): 4.33 µM | IC50 (DR11 [2]): 4.33 µM | IC50 (DR7 [3]): 3.17 µM | IC50 (DR3): 3.5 µM | IC50 (DR4 [4]): 0.03 µM | IC50 (DR15 [5]): 6.67 µM | immune response (splenocyte proliferation index) [6]: do not induce any effect | IC50 (DR13): 9.5 µM

GAPLGGAARALAHG [C 141-155]
IC50 (DR15 [7]): 50 µM | IC50 (DRB5 [8]): 8.33 µM | IC50 (DR7 [9]): 11.8 µM | IC50 (DP401): 9.49 µM | IC50 (DR4 [10]): 80 µM | IC50 (DR1): 3.5 µM | IC50 (DR11 [11]): 0.49 µM
